Data on one compound can be found in PMC11246197 (Journal of medicinal chemistry, 2024).

Molecules are shown by their SMILES.

The test system of this experiment is SARS-CoV-2 Omicron variant BA.1. The format is cell-based. The settings on record: read-out: EC50 against SARS-CoV-2 Omicron variant BA.1.

As a reminder, the EC50 is the concentration at which the effect is half-maximal. Take `CC(C)OC(=O)[C@H](C)N[P@](=O)(OC[C@H]1O[C@@](C#N)(c2ccc3c(N)ncnn23)[C@H](O)[C@@H]1O)Oc1ccccc1` [IsoRDV]: the EC50 is 540 nM.
